Data on 15 compounds can be found in patent publication US11040028B2, “Penicinotam derivative, preparation method and use thereof” (OCEAN UNIVERSITY OF CHINA, priority 2017, dated 2021).

Common to all, as to assay type: cell-based
Test [1] relates to human dermal fibroblasts CCC-ESF-1. As to the kind of experiment: Anti-fibrosis activity test: inhibition of proliferation of human dermal fibroblasts CCC-ESF-1 (CCK-8). The following applies: Fibroblast; human dermal fibroblasts CCC-ESF-1, CCK-8, 48 hours. The method, boiled down:
(§1)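 Seed 2×10^4 cells/mL; adhere 24 h, 37° C/5% CO2. Compounds, serial concentrations, triplicate, 48 h. CCK-8 2 h, A450. IR=(1−Ai/Ao)×100% vs blank; IC50 fitted. Pirfenidone as positive control.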

The next test concerns BHK-21 cells. As to the kind of experiment: Anti-fibrosis activity test: inhibition of BHK-21 cell proliferation (CCK-8). Particulars: Mesocricetus auratus, BHK-21, 48 h, CCK-8, 48 hours after administration. The method, boiled down: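 Cells seeded at 2×10^4 cells/mL, allowed to adhere 24 hours, then exposed to graded compound concentrations in triplicate for 48 hours at 37° C, 5% CO2. CCK-8 added for 2 hours, absorbance read at 450 nm; inhibition versus blank control used to derive IC50. Pirfenidone served as positive control.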

Test [2] relates to human embryonic lung fibroblast IMR-90. Kind of test: Anti-fibrosis activity test: inhibition of proliferation of human embryonic lung fibroblast IMR-90 (CCK-8). Particulars: human embryonic lung fibroblast IMR-90, CCK-8, 48 hours. The procedure, abridged: as §1
Test [3] deals with human hepatic stellate cells LX-2. As to the kind of experiment: Anti-fibrosis activity test: inhibition of proliferation of human hepatic stellate cells LX-2 (CCK-8). The following applies: Homo sapiens, 48 h, human hepatic stellate cells LX-2, CCK-8, 48 hours. The procedure, abridged: as §1
Test [4] has as its system cardiac fibroblast RAT-iCell-C002. Kind of test: Anti-fibrosis activity test: inhibition of proliferation of cardiac fibroblast RAT-iCell-C002 (CCK-8). The following applies: Cardiac fibroblast, 48 h, cardiac fibroblast RAT-iCell-C002, CCK-8, 48 hours. The method, boiled down:
as §1

Test [5] concerns mouse macrophages (RAW264.7). As to the kind of experiment: Lipopolysaccharide-induced NO secretion in macrophages (Griess). The following applies: Mus musculus, RAW264.7, 24 h, RAW264.7, LPS 1 μg/ml, a/b isomers given as first/second symbol, read-out: IC50 (μM), inhibition of lipopolysaccharide-induced NO secretion in macrophages. The method, boiled down: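 LPS 1 μg/ml, 24 h, RAW264.7 (DMEM/10% FBS); cpds at varied concs. Supernatant NO by Griess, A548; % inhibition vs blank medium.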

Test [6] deals with human fibrosarcoma cells HT-1080. Kind of test: Anti-fibrosis activity test: inhibition of proliferation of human fibrosarcoma cells HT-1080 (CCK-8). Particulars: Homo sapiens, HT-1080, 48 h, human fibrosarcoma cells HT-1080, CCK-8, 48 hours. The method, boiled down:
as §1

The test system of test [7] is human lung fibroblasts HFL1. Kind of test: Anti-fibrosis activity test: inhibition of proliferation of human lung fibroblasts HFL1 (CCK-8). Particulars: Homo sapiens, HFL1, 48 h, human lung fibroblasts HFL1, CCK-8, 48 hours. The procedure, abridged:
as §1

The test system of a further test is NF-κB. Kind of test: Immunological activity test: inhibition of NF-κB activity. Particulars: initial concentration of 30 μM; a/b isomers given as first/second symbol; read-out: IC50 (μM), inhibitory activity against NF-κB. The procedure, abridged:
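Parthenolide as positive control; starting test concentration 30 μM; inhibition of NF-κB activity analysed further to yield IC50.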

As usually defined, the IC50 is the midpoint of a concentration-inhibition curve.

Turning to `Cc1ccccc1Cn1c2c(c(=O)c3ccccc31)C(=O)n1cccc1-2` [Compound 574a, 4-(2-Methylbenzyl)-9H-pyrrolizino[1,2-b]quinoline-9,10(4H)-dione], the IC50 in test [1] was in the range of 0.05 to 5 mM; with BHK-21 cells, 0.05 to 5 mM; in test [2], 0.05 to 5 mM; in [3], 0.05 to 5 mM; in test [4], 0.05 to 5 mM; in test [5] it was 1 to 10 µM. Moreover, the IC50 was in the range of 0.05 to 5 mM in [6], 0.05 to 5 mM in [7] and 1 to 10 µM in the test on NF-κB.
In the case of `Cc1ccccc1COc1c2c(nc3ccccc13)-c1cccn1C2=O` [Compound 574b, 9-((2-methylbenzyl)oxy)-10H-pyrrolizino[1,2-b]quinolin-10-one], the IC50 in test [1] lay in the range of 0.05 to 5 mM; with BHK-21 cells, 0.05 to 5 mM; in test [2] it was 0.05 to 5 mM; in test [3], 0.05 to 5 mM; in test [4], 0.05 to 5 mM; in test [5], 10 to 50 µM. The 50% inhibitory concentration (IC50) in test [6] fell in the range of 0.05 to 5 mM; in test [7] it was 0.05 to 5 mM; in the test with NF-κB it was 1 to 10 µM.
In the case of `O=C1c2c(n(Cc3ccc(I)cc3)c3ccccc3c2=O)-c2cccn21` [Compound 575a, 4-(4-Iodobenzyl)-9H-pyrrolizino[1,2-b]quinoline-9,10(4H)-dione], the half-maximal inhibitory concentration (IC50) in [1] was 0.05 to 5 mM; in the test on BHK-21 cells it was < 0.05 mM; in test [2] it was 0.05 to 5 mM; in test [3], 0.05 to 5 mM; in test [4], 0.05 to 5 mM; in test [5] it was 1 to 10 µM. Moreover, the IC50 in test [6] lay within 0.05 to 5 mM; in test [7], 0.05 to 5 mM; in the test with NF-κB, 0.1 to 1 µM.
For the compound `O=C1c2c(nc3ccccc3c2OCc2ccc(I)cc2)-c2cccn21` [Compound 575b, 9-((4-iodobenzyl)oxy)-10H-pyrrolizino[1,2-b]quinolin-10-one], the half-inhibitory concentration (IC50) in test [1] is 0.05 to 5 mM; with BHK-21 cells, 0.05 to 5 mM; in test [2], 0.05 to 5 mM; in test [3], 0.05 to 5 mM; in test [4], 0.05 to 5 mM; in test [5] it was 1 to 10 µM. Further, the 50% inhibitory concentration (IC50) was 0.05 to 5 mM in [6], 0.05 to 5 mM in test [7] and 1 to 10 µM with NF-κB.
`O=C1c2c(n(Cc3ccccc3I)c3ccccc3c2=O)-c2cccn21` [Compound 576a, 4-(2-Iodobenzyl)-9H-pyrrolizino[1,2-b]quinoline-9,10(4H)-dione]: the half-maximal inhibitory concentration (IC50) in test [1] was 0.05 to 5 mM; in the test on BHK-21 cells, 0.05 to 5 mM; in test [2] it was 0.05 to 5 mM; in test [3], 0.05 to 5 mM; in test [4], 0.05 to 5 mM; in test [5], 1 to 10 µM. Moreover, the IC50 in test [6] is 0.05 to 5 mM; in test [7] it was 0.05 to 5 mM; in the test on NF-κB, 1 to 10 µM.
On to `O=C1c2c(nc3ccccc3c2OCc2ccccc2I)-c2cccn21` [Compound 576b, 9-((2-iodobenzyl)oxy)-10H-pyrrolizino[1,2-b]quinolin-10-one], for which the IC50 in test [1] was 0.05 to 5 mM; in the test with BHK-21 cells, 0.05 to 5 mM; in [2], 0.05 to 5 mM; in test [3], 0.05 to 5 mM; in test [4], 0.05 to 5 mM; in [5] it was 1 to 10 µM. Also, the IC50 in test [6] fell in the range of 0.05 to 5 mM; in test [7] it was 0.05 to 5 mM; in the test with NF-κB, 1 to 10 µM.
In the case of `N#Cc1ccccc1Cn1c2c(c(=O)c3ccccc31)C(=O)n1cccc1-2` [Compound 577a, 2-((9,10-Dioxo-9H-pyrrolizino[1,2-b]quinolin-4(10H)-yl)methyl)benzonitrile], the IC50 in [1] was 0.05 to 5 mM; with BHK-21 cells it was 0.05 to 5 mM; in [2], 0.05 to 5 mM; in test [3], < 0.05 mM; in test [4], 0.05 to 5 mM; in test [5], 1 to 10 µM. Besides, the 50% inhibitory concentration (IC50) in [6] is 0.05 to 5 mM; in test [7], 0.05 to 5 mM; with NF-κB, 1 to 10 µM.
With `N#Cc1ccccc1COc1c2c(nc3ccccc13)-c1cccn1C2=O` [Compound 577b, 2-(((10-oxo-10H-pyrrolizino[1,2-b]quinolin-9-yl)oxy)methyl)benzonitrile], the 50% inhibitory concentration (IC50) was in the range of 0.05 to 5 mM in test [1]; 0.05 to 5 mM in the test on BHK-21 cells; 0.05 to 5 mM in test [2]; 0.05 to 5 mM in [3]; 0.05 to 5 mM in [4]; 1 to 10 µM in test [5]. The half-maximal inhibitory concentration (IC50) in test [6] fell in the range of 0.05 to 5 mM; in [7], 0.05 to 5 mM; in the test with NF-κB it was 1 to 10 µM.
As for `O=C1c2c(n(Cc3ccc(F)cc3F)c3ccccc3c2=O)-c2cccn21` [Compound 578a, 4-(2,4-Difluorobenzyl)-9H-pyrrolizino[1,2-b]quinoline-9,10(4H)-dione], the IC50 fell in the range of 0.05 to 5 mM in [1]; 0.05 to 5 mM in the test with BHK-21 cells; 0.05 to 5 mM in test [2]; 0.05 to 5 mM in test [3]; 0.05 to 5 mM in test [4]; 1 to 10 µM in test [5]. In addition, the results for the IC50 (in test [6]; in [7]; in the test on NF-κB) were < 0.05 mM, 0.05 to 5 mM and 1 to 10 µM, respectively.
Turning to `O=C1c2c(nc3ccccc3c2OCc2ccc(F)cc2F)-c2cccn21` [Compound 578b, 9-((2,4-difluorobenzyl)oxy)-10H-pyrrolizino[1,2-b]quinolin-10-one], the IC50 in test [1] fell in the range of 0.05 to 5 mM; in the test with BHK-21 cells, 0.05 to 5 mM; in test [2] it was 0.05 to 5 mM; in test [3], 0.05 to 5 mM; in test [4], 0.05 to 5 mM; in test [5], 1 to 10 µM. Further, the 50% inhibitory concentration (IC50) in test [6] lay within 0.05 to 5 mM; in test [7], 0.05 to 5 mM; in the test on NF-κB, 1 to 10 µM.
`O=C1c2c(n(Cc3cc(F)cc(F)c3)c3ccccc3c2=O)-c2cccn21` [Compound 579a, 4-(3,5-Difluorobenzyl)-9H-pyrrolizino[1,2-b]quinoline-9,10(4H)-dione]: the concentration for half-maximal inhibition (IC50) fell in the range of 0.05 to 5 mM in test [1]; 0.05 to 5 mM with BHK-21 cells; 0.05 to 5 mM in [2]; 0.05 to 5 mM in test [3]; 0.05 to 5 mM in test [4]; 1 to 10 µM in test [5]. In addition, the values for the IC50 (in test [6]; in [7]; with NF-κB) were 0.05 to 5 mM, 0.05 to 5 mM and 0.1 to 1 µM, respectively.
With `O=C1c2c(nc3ccccc3c2OCc2cc(F)cc(F)c2)-c2cccn21` [Compound 579b, 9-((3,5-difluorobenzyl)oxy)-10H-pyrrolizino[1,2-b]quinolin-10-one], the IC50 was in the range of 0.05 to 5 mM in [1]; 0.05 to 5 mM in the test on BHK-21 cells; 0.05 to 5 mM in [2]; 0.05 to 5 mM in test [3]; 0.05 to 5 mM in test [4]; 1 to 10 µM in [5]. The concentration for half-maximal inhibition (IC50) in test [6] was 0.05 to 5 mM; in test [7] it was 0.05 to 5 mM; in the test on NF-κB it was 0.1 to 1 µM.
With `COc1cc(Cn2c3c(c(=O)c4ccccc42)C(=O)n2cccc2-3)cc(OC)c1` [Compound 580a, 4-(3,5-Dimethoxybenzyl)-9H-pyrrolizino[1,2-b]quinoline-9,10(4H)-dione], the half-inhibitory concentration (IC50) in test [1] lay within 0.05 to 5 mM; in the test with BHK-21 cells, 0.05 to 5 mM; in test [2], 0.05 to 5 mM; in [3], 0.05 to 5 mM; in test [4], 0.05 to 5 mM; in test [5], 0.1 to 1 µM. Besides, the IC50 fell in the range of 0.05 to 5 mM in test [6], 0.05 to 5 mM in test [7] and 1 to 10 µM in the test with NF-κB.
As to `COc1cc(COc2c3c(nc4ccccc24)-c2cccn2C3=O)cc(OC)c1` [Compound 580b, 9-((3,5-dimethoxybenzyl)oxy)-10H-pyrrolizino[1,2-b]quinolin-10-one], the half-inhibitory concentration (IC50) was in the range of 0.05 to 5 mM in test [1]; 0.05 to 5 mM in the test on BHK-21 cells; 0.05 to 5 mM in test [2]; 0.05 to 5 mM in [3]; 0.05 to 5 mM in [4]; 1 to 10 µM in test [5]. In addition, the IC50 fell in the range of 0.05 to 5 mM in test [6], 0.05 to 5 mM in test [7] and 1 to 10 µM in the test on NF-κB.
On to `O=C1c2c(n(Cc3ccccc3C(F)(F)F)c3ccccc3c2=O)-c2cccn21` [Compound 581a, 4-(2-(Trifluoromethyl)benzyl)-9H-pyrrolizino[1,2-b]quinoline-9,10(4H)-dione], for which the IC50 was in the range of 0.05 to 5 mM in test [1]; 0.05 to 5 mM in the test on BHK-21 cells; 0.05 to 5 mM in test [2]; 0.05 to 5 mM in test [3]; 0.05 to 5 mM in test [4]; 0.1 to 1 µM in test [5]. The results for the IC50 (in test [6]; in test [7]; in the test with NF-κB) were 0.05 to 5 mM, 0.05 to 5 mM and 1 to 10 µM, respectively.
